From patent US20080038349A1, “Peptide-Pna Chimera Targeting Inducible Nitric Oxide Synthetase” (priority 2004, published 2008)
{Gly} = glycine residue at the PNA end written 3'; {Lys} = lysine residue at the PNA end written 5'

Experiments:
macrophags iNOS = conditions: in vitro, macrophages; cited from earlier work
[1] = test system: Sense 5′-3′: GAA AGA GGA AAA GG; experiment: Hybridization experiments (Tm from UV melting curves); format: binding; conditions: for Tm (temperature of melting, hybridization): vs sense DNA, duplex 5 μM, 10 mM phosphate buffer, 100 mM NaCl, 0.1 mM EDTA, pH=7
Experimental: The DNA sequences used in the hybridization experiments were purchased from (Sigma; USA). A PNA sequence was purchased from Bio-Synthesis Inc. (Lewisville, USA). All hybrid samples reported were first incubated at 90° C. for 5 minutes, then slowly cooled at room temperature. The Duplex concentration of the various samples was 5 μM. All hybridization experiments were carried out in a 10 mM phosphate buffer, 100 mM NaCl, 0.1 mM EDTA, pH=7. Temperature was monitored by an internal thermocouple, at an accuracy of ±0.3° C. Melting curves were recorded by heating the samples (1° C./min) with a 2-min. hold time by UV signal at 260 nm. Melting temperatures were taken as the maximum of the first derivative of the melting curves. UV absorbance measurements were performed on a Varian Cart 5E UV-VIS-NIR spectrophotometer equipped with a Cary temperature controller, in 1-cm quartz cells.
The modifications on the PNA chain although improving bioavailability can diminish activity (hybridization). To examine the effect of modifications on activity properties an experiment was conducted to examine the hybridization properties (determined by changes in temperature of melting or Tm) KBP-10 sequence. Tm value (39.5° C.) was almost the same as predicted calculated value based on sequence (40° C.).

Multiple Sclerosis Model = experiment: Multiple sclerosis model (MOG 35-55 inoculated mice); format: in vivo; conditions: 10 mg/kg for 10 consecutive days
Experimental: Mice (female, Cpb 57B1/6; Harlan) were inoculated with ecephalitogenic peptide (MOG 35-55; synthesized at the Hebrew university) emulsified with CFA and pertussis toxin (Sigma) and in the same time were treated with CH(K)6HC-O-5′CTTTCTCCTTTTCC3′-O-HAIYPRH (KBP-11; 10 mg/kg; n=3) or with vehicle solution (control group; n=4) for 10 consecutive days, starting a day after the inoculation of MOG.
At the end the experiment (day 30) animals were scarified and brain tissue were send to histological (H&E analysis) and immunohistochemical (iNOS expression) analysis.

cells in culture = conditions: cited from earlier work
[2] = starting a day after MOG inoculation, n=3

For “3′-Gly-CTTTCTCCTTTTCC-Lys 5′ (all peptide nucleic acid (PNA), 5' {Lys}, 3' {Gly}) [PNA targeting macrophage iNOS]”, the iNOS expression (macrophags iNOS) is given as “specifically diminished its expression”.

With “CH(K)6HC-O-5′CTTTCTCCTTTTCC3′-O-HAIYPRH [KBP-11]” the “Effect of peptide modification on hybridization properties” value ([1]; modified PNA vs. ODN, FIG. 1) was “did not affect the hybridization properties”, the “Tm (temperature of melting, hybridization)” value [1] was 39.00 °C and the Incidence (Multiple Sclerosis Model; [2]) was 1/3. The “Mean disease duration” value (Multiple Sclerosis Model; [2]) was 6 days and the “Mean Score (Disease burden)” value (Multiple Sclerosis Model; clinical score 0-6) was 0.4 ± 0.16.

For CHK6HC, the “Transfection of cells in culture” value (cells in culture) is given as “improved transfection of cells in culture”.

In the case of “CTTTCTCCTTTTCC (chemistry not given here) [Oligodeoxynucleotide, reference compound]”, the “Tm (temperature of melting, hybridization)” value [1] is reported as 46.96 °C.
